Test results as given in patent US6703216B2, “Methods, compositions and apparatuses for detection of gamma-hydroxybutyric acid (GHB)” (priority 2002, dated 2004).
Read-outs that look alike come from different tables or passages of the source.

Tests used:
GHB-DH fusion protein [1] = target: T1, GHB-DH fusion protein (Cupriavidus necator, UniProt Q59104); type: biochemical, Ralstonia eutropha; design: made in house; host or cells: E. coli pLysS cells (Novagene), vector pGEX-2T/GHB-DH
Description: A number of potential stabilizing agents were tested for their suitability in stabilizing a formulation of a GST fusion protein comprising the R. eutropha SSA reductase. Enzymatic activity of the purified fusion protein was studied after storage in different formulations for 21 days at 4° C. […] A range of concentrations of ammonium sulfate and glycerol were tested. […] GHB-DH may contain bound iron and copper ions (Wolf, 1995), which chelating agents can sequester and thereby denature and/or inactivate the oxidoreductase.
Enzymatic assay for GHB based on formation of NADH. GHB-DH activity was assayed at 23° C. in 1 ml of buffer (97 mM 2-amino-2-methyl-1,3-propanediol (AMPD) adjusted to pH 8.5 with HCl) containing 14 μg purified fusion protein and 1 mM NAD^+ in a cuvette of 1 cm path length at 23° C. (Valentin, 1995). Reaction was initiated by the addition of GHB to 20 mM, and formation of NADH was monitored by the increase in absorbance at 334 nm (FIG. 4A).
Stability of fusion protein. The GHB-DH enzymatic activity of R. eutropha GHB-DH fusion protein was studied after storage for 21 days at 4° C. under various conditions (FIG. 5). Fourteen μg of protein was assayed using the method described in Example 4. Test enzyme solutions included the crude lysate, purified fusion protein at 7 mg/ml in 50 mM NaCl and 30 mM MOPS adjusted to pH 7.4 with NaOH, and purified fusion protein at 7 mg/ml in the same buffer also containing potential stabilizing agents.

O=C(O)CCCO = assay: purified protein, by the assay type; conditions: other: GHB as substrate, 5 μg fusion protein, pH 8.5, 23° C.
R. eutropha GHB-DH [2] = target: T2, R. eutropha GHB-DH (Cupriavidus necator, UniProt Q59104); assay: Economical dipstick assay for GHB in alcoholic beverages after evaporation
[3] = target: purified GHB-DH fusion protein (Cupriavidus necator, UniProt Q59104); conditions: for weaker affinity for GHB-DH than GHB: ethanol relative to GHB
R. eutropha GHB-DH [4] = target: T2, R. eutropha GHB-DH; type: biochemical, Ralstonia eutropha; design: made in house; host or cells: E. coli pLysS cells (Novagene), vector pGEX-2T/GHB-DH; conditions: 20 mM GHB in the same concentrations of ethanol
GHB-DH fusion protein [5] = target: T1, GHB-DH fusion protein; type: biochemical, Ralstonia eutropha; design: made in house; host or cells: E. coli pLysS cells (Novagene), vector pGEX-2T/GHB-DH; remark: listed apart in the source
GHB-DH fusion protein [6] = target: T1, GHB-DH fusion protein; assay: Detection of GHB in human urine on filter paper
[7] = 150-pound person, cited from earlier work
[8] = purified fusion protein 7 mg/ml, 21 days at 4° C.

N.N.O=S(=O)(O)O [ammonium sulfate]
effect of agent on enzyme activity during storage (GHB-DH fusion protein [1]; [8]): somewhat deleterious | enzyme activity lost during storage (GHB-DH fusion protein [1]; range of concentrations of ammonium sulfate, 21 days at 4° C.): ≥ 50%

O=C(O)CN(CCN(CC(=O)O)CC(=O)O)CC(=O)O [EDTA, ethylene diamine tetraacetic acid]
effect of agent on enzyme activity during storage (GHB-DH fusion protein [1]; [8]): nearly totally inactivated enzyme activity | effect of agent on enzyme activity during storage (GHB-DH fusion protein [1]; purified fusion protein 7 mg/ml, 21 days at 4° C., listed as ethylene diamine tetraacetic acid): drastically diminished enzyme activity

purified GHB-DH fusion protein (Cupriavidus necator)
Km (O=C(O)CCCO): 2190 ± 130 µM

O=C(O)CCCO [GHB, 4-hydroxy-butanoic acid]
color developed (R. eutropha GHB-DH [2]; 20 mM GHB in 25 alcoholic beverages, 2 minutes): intense purple color | GHB concentration detected in alcoholic beverages (R. eutropha GHB-DH [2]; evaporated sample, 2 minutes reaction at 23° C.): ≤ 1 mM | Vmax ([3]; GHB as substrate (FIG. 6A)): 0.049±0.001 A/min/μg | Vmax ([3]; GHB as substrate, 5 μg fusion protein): 0.049±0.001 Absorbance/min/μg fusion protein | color produced on paper (R. eutropha GHB-DH [4]): intense purple | GHB concentration readily detected (GHB-DH fusion protein [5]; conjugated filters, assay buffer, 23° C.): ≤ 2 mM | color produced (GHB-DH fusion protein [6]; 0.1 mM GHB in human urine): slight but definite purple | color produced (GHB-DH fusion protein [6]; 0.3 mM GHB in human urine): substantial purple | GHB concentration in urine producing color (GHB-DH fusion protein [6]; human urine, dried or not dried, 5 minutes): ≤ 0.1 mM | effect in a person ([7]; 1-gram dose): low degree of effect | effect in a person ([7]; 2.5-gram dose): coma

reduced glutathione
effect of agent on enzyme activity during storage (GHB-DH fusion protein [1]; [8]): drastically diminished enzyme activity | effect of agent on enzyme activity during storage (GHB-DH fusion protein [1]; purified fusion protein 7 mg/ml, 21 days at 4° C., listed as reduced GSH): nearly totally inactivated enzyme activity

O[C@H](CS)[C@H](O)CS (racemic) [DTT, dithiothreitol]
effect of agent on enzyme activity during storage (GHB-DH fusion protein [1]; [8]): nearly completely inactivated enzyme activity | effect of agent on enzyme activity during storage (GHB-DH fusion protein [1]; purified fusion protein 7 mg/ml, 21 days at 4° C., listed as dithiothreitol): drastically diminished enzyme activity

oxidized glutathione
effect of agent on enzyme activity during storage (GHB-DH fusion protein [1]; [8]): drastically diminished enzyme activity | effect of agent on enzyme activity during storage (GHB-DH fusion protein [1]; purified fusion protein 7 mg/ml, 21 days at 4° C., listed as oxidized GSH): nearly totally inactivated enzyme activity

CCO [Ethanol, ethanol]
weaker affinity for GHB-DH than GHB [3]: about 200 fold | weaker affinity for GHB-DH than GHB ([3]; listed as ethanol): approximately 200 fold | color produced (GHB-DH fusion protein [5]; all concentrations of ethanol tested): little or no color

OCC(O)CO [glycerol]
effect of agent on enzyme activity during storage (GHB-DH fusion protein [1]; 5-20% glycerol, 4° C.): retained high degrees of enzyme activity | effect of agent on enzyme activity during storage (GHB-DH fusion protein [1]; 10% glycerol, 21 days, 4° C.): greatest retention | effect of agent on enzyme activity during storage (GHB-DH fusion protein [1]; 50% glycerol at 4° C.): deleterious

OCCS [BME, 2-mercaptoethanol]
effect of agent on enzyme activity during storage (GHB-DH fusion protein [1]; [8]): nearly completely inactivated enzyme activity | effect of agent on enzyme activity during storage (GHB-DH fusion protein [1]; purified fusion protein 7 mg/ml, 21 days at 4° C., listed as beta-mercaptoethanol): drastically diminished enzyme activity
